Assays:
Assay type in all cases: cell-based
F508del-CFTR [1] = biological target: T1, F508del-CFTR (Homo sapiens, UniProt P13569, DEL508-508); assay: HS-YFP-based assay for CFTR activity on F508del-CFTR FRT cells rescued at 32 °C for 24 h; parameters: expressed in transfected cells; key to Emax: fold increase in F508del-CFTR rescue relative to hit 3 (normalized)
Experimental: The chemical library was screened in duplicate on a Fischer rat thyroid (FRT) cell line, stably coexpressing F508del-CFTR and the halide-sensitive yellow fluorescent protein, HS-YFP.[23],[34],[35] To overcome the F508del trafficking defect, cells were initially incubated for 24 h at 32 °C and then acutely treated (15–30 min) with a single compound (5 μM) in combination with forskolin (10 μM). After stimulation, the F508del-CFTR activity in the plasma membrane was calculated by measuring the rate of fluorescence quenching arising from iodide influx.[34] This activity was compared to that of wells containing forskolin alone (negative control) or forskolin plus VX-770 (1 μM, as a positive control) (Figure 2A). Analysis of screening performance with the Z′ method gave a score of 0.6, which can be considered optimal for this type of assay. The activity scores for each compound were then plotted as an ordered distribution (Figure 2B). All compounds whose average activity calculated from the two rounds of screening was greater than 185% with respect to the negative control (i.e., forskolin alone) were considered as primary hits.
The primary hits were confirmed by testing them at different concentrations, in order to extrapolate the dose–response relationship. First, we focused on the F508del mutant. The compounds were tested in the low micromolar range, in the presence of forskolin (10 μM), on F508del-CFTR FRT cells following rescue of the trafficking defect by low-temperature incubation, as done for the primary screening. The most interesting hits were subsequently tested for their ability to overcome the more severe gating defect of pure class III mutant using FRT cells stably expressing G551D-CFTR (Figure 3B).
The role of the heteroaryl group (A) acylating the position 2 of the tetrahydro-γ-carboline was initially explored by modifying the substituent on the pyrazolyl residue and replacing the pyrazole with other rings, while keeping the 8-methoxy carboline moiety unmodified. The activity of each compound is described in terms of normalized maximal efficacy (Emax), the maximum fold increase in the rescue of F508del-CFTR activity with respect to hit 3, and potency (EC50), the concentration producing half-maximal efficacy.
FRT cells stably expressing mutant F508del-CFTR or G551D-CFTR and the halide-sensitive yellow fluorescent protein (HS-YFP) YFP-H148Q/I152L and CFBE41o-cells stably expressing F508del-CFTR and HS-YFP were generated as previously described.[21],[57] FRT cells were cultured using the Coon’s modification of Ham’s F12 medium, while CFBE41o-cells were cultured in the modified Eagle’s medium. Media were supplemented with 10% fetal calf serum, 2 mM L-glutamine, 100 U/mL of penicillin, and […] of streptomycin. For functional assays of CFTR activity based on the HS-YFP assays, CFBE41o- or FRT cells were plated (50,000 cells/well) on clear-bottom 96-well black microplates (Corning Life Sciences, Acton, MA). The following day, cells were assayed. In the case of FRT cells expressing F508del-CFTR, plates were kept at 32 °C (or treated with correctors at 37 °C where indicated) for an additional 24 h to rescue the mutant trafficking defect, before assays.
Prior assay, cells were washed with phosphate-buffered saline (PBS) containing (in mM) 137 NaCl, 2.7 KCl, 8.1 Na2HPO4, 1.5 KH2PO4, 1 CaCl2, and 0.5 MgCl2. Cells were then incubated for 25 min with 60 μL of PBS plus forskolin (20 μM) and test compounds (at the desired concentration) to stimulate mutant CFTR. Cells were then transferred to microplate readers (FluoStar Optima; BMG Labtech, Offenburg, Germany) for CFTR activity determination. The plate readers were equipped with high-quality excitation (HQ500/20X: 500 ± 10 nm) and emission (HQ535/30M: 535 ± 15 nm) filters for YFP (Chroma Technology). […]

F508del-CFTR [2] = biological target: T1, F508del-CFTR; assay: HS-YFP assay on F508del-CFTR CFBE41o- cells, acute stimulation; parameters: expressed in transfected cells; conditions: acute stimulation in the presence of forskolin, Figure 4A
Experimental: The preliminary activity of these three hits was further evaluated in secondary screening assays. Although featuring the same common scaffold, in order to possibly discriminate the most interesting hit for further structural investigations, the compounds belonging to the family of tetrahydro-γ-carbolines were tested on more relevant cell models. First, the hits were tested on an immortalized bronchial epithelial cell line (CFBE41o-) stably expressing F508del-CFTR and HS-YFP. […]
Prior assay, cells were washed with phosphate-buffered saline (PBS) containing (in mM) 137 NaCl, 2.7 KCl, 8.1 Na2HPO4, 1.5 KH2PO4, 1 CaCl2, and 0.5 MgCl2. […] Cells were then transferred to microplate readers (FluoStar Optima; BMG Labtech, Offenburg, Germany) for CFTR activity determination. The plate readers were equipped with high-quality excitation (HQ500/20X: 500 ± 10 nm) and emission (HQ535/30M: 535 ± 15 nm) filters for YFP (Chroma Technology). The assay consisted of a continuous 14 s fluorescence reading, 2 s before and 12 s after injection of 165 μL of an iodide-containing solution (PBS with Cl^– replaced by I^–; final I^– concentration 100 mM). Data were normalized to the initial background-subtracted fluorescence. […]

CFTR = biological target: T2, CFTR (Homo sapiens, UniProt P13569); assay: Short-circuit current recordings on primary HBE cells from non-CF individuals
T2 construct: primary human bronchial epithelial (HBE) cells, from non-CF individuals; endogenous in cells; host or cells: primary human bronchial epithelial cells from non-CF individuals
T2 sequence (P13569 whole entry): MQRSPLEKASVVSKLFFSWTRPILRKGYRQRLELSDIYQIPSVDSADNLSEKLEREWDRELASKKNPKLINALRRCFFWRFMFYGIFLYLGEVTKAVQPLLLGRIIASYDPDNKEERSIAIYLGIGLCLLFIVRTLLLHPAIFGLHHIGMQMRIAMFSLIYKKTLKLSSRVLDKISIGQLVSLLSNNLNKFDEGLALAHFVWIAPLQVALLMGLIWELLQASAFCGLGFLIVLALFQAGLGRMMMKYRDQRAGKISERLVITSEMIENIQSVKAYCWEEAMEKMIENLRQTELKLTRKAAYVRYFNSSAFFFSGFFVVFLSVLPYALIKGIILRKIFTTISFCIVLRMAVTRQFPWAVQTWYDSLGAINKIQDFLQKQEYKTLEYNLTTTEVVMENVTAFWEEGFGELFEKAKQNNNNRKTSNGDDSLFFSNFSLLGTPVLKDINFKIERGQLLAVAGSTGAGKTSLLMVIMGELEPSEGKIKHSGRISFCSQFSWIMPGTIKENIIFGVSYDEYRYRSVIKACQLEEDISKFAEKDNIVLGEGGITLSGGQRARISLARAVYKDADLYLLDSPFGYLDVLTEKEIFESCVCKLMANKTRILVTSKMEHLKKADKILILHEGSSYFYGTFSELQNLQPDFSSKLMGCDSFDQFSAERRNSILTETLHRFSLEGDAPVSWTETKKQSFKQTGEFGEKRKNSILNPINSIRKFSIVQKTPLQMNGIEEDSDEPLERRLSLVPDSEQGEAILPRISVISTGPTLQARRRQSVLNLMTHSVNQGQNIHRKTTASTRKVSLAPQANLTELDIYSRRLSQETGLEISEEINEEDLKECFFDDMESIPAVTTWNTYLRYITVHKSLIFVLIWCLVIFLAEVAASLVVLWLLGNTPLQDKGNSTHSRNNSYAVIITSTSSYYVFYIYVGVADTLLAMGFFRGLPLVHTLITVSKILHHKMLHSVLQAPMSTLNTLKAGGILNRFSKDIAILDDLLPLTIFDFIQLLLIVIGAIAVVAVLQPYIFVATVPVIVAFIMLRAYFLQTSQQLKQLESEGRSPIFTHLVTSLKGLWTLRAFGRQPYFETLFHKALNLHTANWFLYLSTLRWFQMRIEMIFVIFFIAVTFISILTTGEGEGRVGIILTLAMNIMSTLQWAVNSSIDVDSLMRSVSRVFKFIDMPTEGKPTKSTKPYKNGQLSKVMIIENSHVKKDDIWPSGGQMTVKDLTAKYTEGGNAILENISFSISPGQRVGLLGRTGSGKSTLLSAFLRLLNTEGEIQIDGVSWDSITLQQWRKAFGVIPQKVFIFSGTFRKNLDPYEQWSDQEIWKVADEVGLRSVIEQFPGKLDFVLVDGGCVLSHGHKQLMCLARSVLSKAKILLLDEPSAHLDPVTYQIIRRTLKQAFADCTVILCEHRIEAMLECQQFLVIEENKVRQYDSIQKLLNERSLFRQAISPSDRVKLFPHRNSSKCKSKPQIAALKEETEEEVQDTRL
Excerpt: Subsequently, the ability of compounds to elicit CFTR-mediated chloride secretion was verified on primary human bronchial epithelial (HBE) cells, from non-CF individuals, in short-circuit current experiments. In this respect, it should be noticed that potentiators are also able to stimulate wild-type CFTR, provided that a submaximal cAMP-dependent stimulation is applied.[20],[22] Accordingly, cells were stimulated with a submaximal concentration of the cAMP analogue, CPT-cAMP, followed by increasing concentrations of the potentiator hit.[20],[22]
Finally, potentiator 39 and VX-770 were further evaluated in primary HBE cells from non-CF individuals, using short-circuit current measurements, to assess the ability of compounds to maximally activate CFTR function in the presence of a submaximal cAMP stimulation. After the addition of amiloride to inhibit sodium absorption through the ENaC channel, the potentiators were added at the maximal effective concentration (1 μM) after which epithelia were stimulated with a submaximal concentration of CPT-cAMP (5 μM), followed by a maximal concentration of the cAMP analogue (100 μM) (Figure 8). We then measured the extent of CFTR-mediated chloride current elicited by submaximal cAMP stimulation in the presence of a potentiator and compared it to total CFTR-mediated chloride current, determined as the current inhibited by CFTR inhibitor-172. In parallel, other epithelia were stimulated only with the two concentrations of the cAMP analogue, in the absence of a potentiator.
Primary bronchial epithelial cells were cultured as previously described.[58] In brief, epithelial cells were cultured in a serum-free medium (LHC9 mixed with RPMI 1640, 1:1) supplemented with hormones and supplements to support cell number amplification. Then, the cells were seeded at high density on porous membranes (500,000 cells for 1 cm^2 Snapwell inserts, for Ussing chamber studies; 200,000 cells for 0.33 cm^2 Mini-Transwell inserts, for TEER/PD measurements). After 24 h, the serum-free medium was replaced with Dulbecco’s modified Eagle’s medium (DMEM)/Ham’s F12 containing 2% fetal bovine serum (FBS) plus hormones and supplements. Differentiation of cells to form a tight epithelium was monitored by measuring transepithelial electrical resistance and potential difference with an epithelial voltohmmeter (EVOM1, World Precision Instruments). […]
Differentiated bronchial epithelia on Snapwell inserts were mounted in a Ussing chamber with internal fluid circulation. […] The short-circuit current was recorded with a PowerLab 4/25 (ADInstruments) analog-to-digital converter connected to a personal computer.

T1 sequence (P13569 with tags, fused parts or gaps DEL508-508): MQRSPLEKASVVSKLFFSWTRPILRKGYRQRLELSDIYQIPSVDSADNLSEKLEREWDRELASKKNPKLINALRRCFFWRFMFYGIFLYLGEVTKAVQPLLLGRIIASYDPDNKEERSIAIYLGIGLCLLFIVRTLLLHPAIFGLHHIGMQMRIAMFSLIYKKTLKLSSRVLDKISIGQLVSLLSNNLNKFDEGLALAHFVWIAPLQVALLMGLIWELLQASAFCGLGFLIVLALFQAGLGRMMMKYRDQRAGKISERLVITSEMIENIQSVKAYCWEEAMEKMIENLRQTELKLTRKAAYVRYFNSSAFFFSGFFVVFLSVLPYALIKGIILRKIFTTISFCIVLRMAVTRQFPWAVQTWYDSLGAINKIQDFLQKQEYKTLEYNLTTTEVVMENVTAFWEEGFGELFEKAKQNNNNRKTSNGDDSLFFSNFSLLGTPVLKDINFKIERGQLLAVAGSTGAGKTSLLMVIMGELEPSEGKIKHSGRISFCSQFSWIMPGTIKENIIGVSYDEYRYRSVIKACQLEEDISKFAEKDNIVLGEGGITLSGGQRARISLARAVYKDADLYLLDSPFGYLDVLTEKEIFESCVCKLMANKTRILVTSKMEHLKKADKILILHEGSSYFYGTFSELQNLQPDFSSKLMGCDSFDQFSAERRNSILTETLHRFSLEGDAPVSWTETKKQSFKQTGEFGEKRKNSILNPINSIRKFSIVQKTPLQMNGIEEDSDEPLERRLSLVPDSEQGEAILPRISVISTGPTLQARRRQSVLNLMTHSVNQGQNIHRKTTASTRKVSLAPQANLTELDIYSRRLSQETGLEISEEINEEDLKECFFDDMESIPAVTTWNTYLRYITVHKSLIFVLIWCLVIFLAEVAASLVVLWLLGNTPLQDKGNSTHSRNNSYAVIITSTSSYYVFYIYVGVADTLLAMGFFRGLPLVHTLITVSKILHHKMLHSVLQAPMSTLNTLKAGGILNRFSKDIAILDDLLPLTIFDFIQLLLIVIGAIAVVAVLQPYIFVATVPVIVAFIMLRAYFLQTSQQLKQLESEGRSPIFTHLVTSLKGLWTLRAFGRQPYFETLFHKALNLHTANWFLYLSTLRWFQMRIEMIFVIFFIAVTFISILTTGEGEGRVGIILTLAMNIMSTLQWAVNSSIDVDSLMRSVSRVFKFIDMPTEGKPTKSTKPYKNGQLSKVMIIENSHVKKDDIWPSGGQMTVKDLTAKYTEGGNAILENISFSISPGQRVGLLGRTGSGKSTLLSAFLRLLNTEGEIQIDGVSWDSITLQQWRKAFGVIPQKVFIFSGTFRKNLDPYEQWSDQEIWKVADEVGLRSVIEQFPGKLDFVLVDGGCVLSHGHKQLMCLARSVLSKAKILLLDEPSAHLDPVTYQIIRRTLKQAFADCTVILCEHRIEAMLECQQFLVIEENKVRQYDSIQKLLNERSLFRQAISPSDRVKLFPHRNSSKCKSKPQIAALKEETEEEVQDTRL

| Compound | EC50 (F508del-CFTR [1]; F508del-CFTR FRT cells rescued at 32 °C for 24 h, plus forskolin, mean ± SD (n = 3–6), n.a.: not active (up to 20 μM)) [µM] | Emax (F508del-CFTR [1]; supplementary csv, same data as Tables 1–3) | dose-dependent activation of mutant CFTR (F508del-CFTR [2]) | comparison of effectiveness of potentiators (CFTR; 1 μM for both compounds, Figure 8B) | increase of the fraction of CFTR-mediated chloride current activated by submaximal cAMP stimulation (CFTR; potentiator 1 μM, CPT-cAMP 5 μM, versus no potentiator) |
| --- | --- | --- | --- | --- | --- |
| CN(C)c1ccc2cc(C(=O)N3CCc4[nH]c5ccccc5c4C3)[nH]c2c1 [Compound 1, (6-(Dimethylamino)-1H-indol-2-yl)-(1,3,4,5-tetrahydro-2H-pyrido[4,3-b]indol-2-yl)methanone] | 0.12 ± 0.014 | 1.04 ± 0.07 | the most effective |  |  |
| CC(C)(C)c1cc(C(C)(C)C)c(NC(=O)c2c[nH]c3ccccc3c2=O)cc1O [VX-770, reference compound] |  |  |  | similarly effective | more than 2 fold |
